In data set [1] the test system is KTC-ICR mice. In words: phenyl-1,4-benzoquinone (PBQ) induced writhing test (analgesic effect). Type of data set: in vivo. As to conditions: Mus musculus, ip; PBQ induced writhing; 50% reduction of writhings vs control group; mice 14 to 18 g; read-out: ED50 PBQ. The procedure:
(§1) Physiological activities of the compounds obtained in Examples 1 to 11 were measured by employing acetic acid or phenyl-1,4-benzoquinone(PBQ) induced writhing test.
(§2) The KTC-ICR mice provided by Experimental Animal Laboratory of Korea Research Institute of Chemical Technology were used as test animals. […] They were tested in a group consisting of 8 mice for each dosage of a test compound after having been adjusted to the testing environment for a week. Food and water were given freely; and illumination was maintained on a 12-hour cycle.
(§3) Test solutions were prepared by dissolving one of the final products obtained in Examples 1 to 11 in distilled water containing 1% of Tween and 5% ethanol in a pre-determined concentration. The test solutions were used after serial dilution depending on each dosage.
(§4) The test solutions were intraperitoneally administered in a dose of 0.1 ml per 10 g of a body weight. 0.1 ml of 1% acetic acid solution or 0.1 ml of 0.02% PBQ solution was administered after 60 minutes in case of oral administration or after 30 minutes in case of subcutaneous injection.
(§5) Then, the number of writhings generated during a period of 10 minutes after 3 minutes from the administration of acetic acid was measured. In case of the administration of PBQ, the number of writhings generated during a period of 5 minutes after 5 minutes from the administration was measured.
(§6) For a comparison purpose, initially, distilled water containing 1% of Tween and 5% ethanol alone was administered to the control group. Then, the control groups were subjected the same procedure as the test groups.
(§7) The number of writhings suffered by the test group was compared with that of the control group; and the analgesic effect was measured in terms of the percentage of inhibition of writhing(I. W.). [formula] wherein: A is the number of writhings suffered by the control group; and
(§8) B is the number of writhings suffered by the test group.
(§9) I.W. values for each dosage were calculated by employing regression analysis. The amount of a test compound which is required in reducing the frequency of writhings to the 50% level of that generated by the control group, i.e., B=0.5A or I.W.=50%, is designated as ED50 (mg/kg of a body weight). Therefore, a lower value of ED50 represents a higher analgesic effect of the tested compound.
A general note: In writhing tests, fewer writhes than in controls are read as antinociception.

Data set [2] has as its system KTC-ICR mice. Put plainly: acetic acid induced writhing test (analgesic effect). Format: in vivo. Particulars: Mus musculus, ip; acetic acid induced writhing; 50% reduction of writhings vs control group; mice 20 to 25 g; read-out: ED50 acetic acid. The protocol: as §1, §2, §3, §4, §5, §6, §7, §8, §9
The subject of data set [3] is test animals. Put plainly: toxicity test: behavioral changes in the test animals observed by the naked eye. Format: in vivo, KTC-ICR mice. On the set-up: key to Convulsion / Salivation / Urination: score; normal value 0, higher number = greater side effects. As to conditions: score; for Convulsion / Salivation / Urination: normal value 0; for Dyspnoea / Ptosis / Sedation / Vasodilation: normal value 4. The procedure: In order to monitor a harmful side-effect or toxicity of the present compounds, various behavioral changes in the test animals were observed. After the test and the control solutions were administered to the animals, symptoms such as sedation, ptosis, dyspnoea, vasodilation, convulsion, salivation and urination were observed by the naked eye and the level of such changes was represented by a numbering system: that is, the normal value of the last three behaviors(i.e., urination, convulsion and salivation) is 0; and that of the others(i.e., sedation, ptosis, dyspnoea and vasodilation) is 4. The higher the number is, the greater the side effects are.

We go through one compound from patent publication US5670546A, “N-Arylalkylphenylacetamide derivatives” (Korean Research Institute of Chemical Technology, priority 1995, dated 1997).

By ED50 is commonly meant the dose that gives a 50% effect, or the effect in half of the subjects.

Structures are written as SMILES.

Turning to `COc1cc(CC(=O)NCCCc2ccc(C)c(C)c2)ccc1OCCNCCO` [Example 2, N-{3-(3,4-dimethylphenyl)propyl}-4-[2-{N-(2-hydroxyethyl)}aminoethoxy]-3-methoxy phenylacetamide], in data set [1], the ED50 came to 0.83 mg/kg. The ED50 in data set [2] amounted to 0.3 mg/kg. In data set [3] (Amount 0.25 mgg), this compound showed a Convulsion of 0, a Salivation of 0, a Urination of 0 and a Dyspnoea of 4. In data set [3] (Amount 0.25 mgg), this compound showed a Ptosis of 4, a Sedation of 4 and a Vasodilation of 4. In data set [3] (Amount 0.5 mgg), this compound had a Convulsion of 0, a Salivation of 0, a Urination of 0 and a Dyspnoea of 4. For the same compound, in data set [3] (Amount 0.5 mgg), the Ptosis worked out at 5, the Sedation was found to be 5 and the Vasodilation came to 4. In data set [3] (Amount 1 mgg), this compound displayed a Convulsion of 0, a Salivation of 0, a Urination of 0 and a Dyspnoea of 5. In data set [3] (Amount 1 mgg), the Ptosis was determined as 6, the Sedation turned out to be 6 and the Vasodilation was 5.
